Ki data for 31 molecules are collected here from US5459152A, “Platelet activating factor antagonists” (Abbott Laboratories, priority 1993, dated 1995).

Molecules are shown by their SMILES. Where a name gives a salt, the structure may show the parent alone.

For one assay, the target named is T1, PAF receptor (Oryctolagus cuniculus, UniProt G1TEI7).
T1 construct: platelet membranes where prepared by centrifugation and washing; tissue Pel-Freez (Rogers, AR) (whole rabbit blood); host or cells: rabbit platelet membranes
T1 sequence (G1TEI7 1-342): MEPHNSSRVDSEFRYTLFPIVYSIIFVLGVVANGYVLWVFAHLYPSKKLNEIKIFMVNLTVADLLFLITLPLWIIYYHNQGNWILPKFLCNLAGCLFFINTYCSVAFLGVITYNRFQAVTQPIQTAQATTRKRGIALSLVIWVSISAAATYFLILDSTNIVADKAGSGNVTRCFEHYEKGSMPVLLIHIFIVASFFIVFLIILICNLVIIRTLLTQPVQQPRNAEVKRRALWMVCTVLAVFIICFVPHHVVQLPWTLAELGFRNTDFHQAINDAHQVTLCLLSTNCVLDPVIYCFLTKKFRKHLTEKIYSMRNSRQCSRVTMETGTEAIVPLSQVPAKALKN
Description: PAF receptor binding assay ([3H]C18-PAF, rabbit platelet membranes). Particulars: inhibition of specific binding of 0.6 nM [3H]C18-PAF to rabbit platelet membranes, 60 min, room temperature; Ki calculated from IC50 by Cheng and Prusoff; read-out: PAF Receptor Binding Activity K1. As for the experimental part: The ability of representative compounds of the present invention to inhibit PAF activity was determined in an in vitro test using the following method.
Citrated whole rabbit blood was obtained from Pel-Freez (Rogers, AR). Rabbit platelets where prepared by centrifugation and washing. The platelets where lysed by freeze-thawing and sonication; platelet membranes where prepared by centrifugation and washing. Final membrane preparations where stored frozen in 10 mM Tris/5 mM MgCl2 /2 mM EDTA (TME buffer, pH 7.0) with 0.25 M sucrose added for membrane stabilization.
The final volume of the assay was 100 μl. The assay was conducted in Millititre-GV™ (Millipore Corp.) filtration plates; incubation time was for 60 minutes at room temperature (22°-23° C.). "Specific binding" was operationally defined as the arithmetic difference between "total binding" of 0.6 nM [^3 H]C18 -PAF (in the absence of added PAF) and "nonspecific binding" (in the presence of 1 μM PAF). After the prescribed incubation, platelet membranes where filtered under vacuum and washed with 1 millilitre of "binding buffer". The filters was dried and removed. The bound radioactivity was quantitated with a Berthold TLC-Linear Analyzer model LB2842.
Experiments where repeated at least once.
Consider `CC(C)(C)OC(=O)NCCn1cc(C(=O)c2ccn3c2CSC3c2cccnc2)c2ccc(-c3ccc(F)cc3)cc21` (stereo not shown) [Example 57], for which the Ki is 38 nM. As to `NCCn1cc(C(=O)c2ccn3c2CSC3c2cccnc2)c2ccc(-c3ccc(F)cc3)cc21` (stereo not shown) [Example 70, 3-(Pyridin-3-yl)-7-[1-(2-aminoethyl)-6-(4-fluorophenyl)indol-3-ylcarbonyl]-1H,3H-pyrrolo[1,2-c]thiazole Hydrochloride], the Ki was 2.6 nM.

Regarding `CN(C)C(=O)n1cc(C(=O)c2ccn3c2CSC3c2cccnc2)c2ccc(-c3cccc(S(N)(=O)=O)c3)cc21` (stereo not shown) [Example 80, 3-(Pyridin-3-yl)-7-[1-N,N-dimethylcarbamoyl-6-(3-aminosulfonylphenyl)indol-3-ylcarbonyl]-1H,3H-pyrrolo[1,2-c]thiazole], the Ki was 45 nM.

The same assay, now with this note: read-out: PAF Receptor Binding Activity K1.
Regarding `NC(=O)n1cc(C(=O)c2ccn3c2CSC3c2cccnc2)c2ccc(-c3ccc(F)cc3)cc21` (stereo not shown) [Example 76, 3-(Pyridin-3-yl)-7-[1-carbamoyl-6-(4-fluorophenyl)indol-3-ylcarbonyl]-1H,3H-pyrrolo[1,2-c]thiazole], the Ki turned out to be 6.1 nM. The same measure, in the same setting: as for `Cn1cc(C(=O)c2ccn3c2CSC3c2ccc[n+]([O-])c2)c2ccc(OCc3ccccc3)cc21` (stereo not shown) [Example 58, 3-(1-Oxide-pyridin-3-yl)-7-(1-methyl-6-phenylmethoxyindol-3-ylcarbonyl)-1H,3H-pyrrolo[1,2-c]thiazole], the figure is 49 nM; as for `N#CCn1cc(C(=O)c2ccn3c2CSC3c2cccnc2)c2ccc(-c3ccc(F)cc3)cc21` (stereo not shown) [Example 94, 3-(Pyridin-3-yl)-7-[1-cyanomethyl-6-(4-fluorophenyl)indol-3-ylcarbonyl]-1H,3H-pyrrolo[1,2-c]thiazole], 40 nM. On to `CN(C)C(=O)n1cc(C(=O)c2ccn3c2CSC3c2cccnc2)c2ccc(-c3cnc(N)nc3)cc21` (stereo not shown) [Example 89], for which the Ki was 280 nM. The same measure, in the same setting: as for `O=C(c1ccn2c1CSC2c1cccnc1)c1cn(C(=O)NCCc2c[nH]cn2)c2cc(-c3ccc(F)cc3)ccc12` (stereo not shown) [Example 105, 3-(Pyridin-3-yl)-7-[1-N-(2-(4-imidazolyl)ethyl)carbamoyl-6-(4-fluorophenyl)indol-3-ylcarbonyl]-1H,3H-pyrrolo[1,2-c]thiazole], the figure is 4.3 nM; as for `O=C(c1ccn2c1CSC2c1cccnc1)c1c[nH]c2cc(Br)ccc12` (stereo not shown) [Example 63, 3-(Pyridin-3-yl)-7-(6-bromoindol-3-ylcarbonyl)-1H,3H-pyrrolo[1,2-c]thiazol], 580 nM; as for `CN(C)C(=O)Cn1cc(C(=O)c2ccn3c2CSC3c2cccnc2)c2ccc(-c3ccc(F)cc3)cc21` (stereo not shown) [Example 53, 3-(Pyridin-3-yl)-7-[1-(2-N,N-dimethylcarbamoylmethyl)-6-(4-fluorophenyl)indol-3-ylcarbonyl]-1H,3H-pyrrolo[1,2-c]thiazole], 0.7 nM.

With `NS(=O)(=O)CCn1cc(C(=O)c2ccn3c2CSC3c2ccc[n+]([O-])c2)c2ccc(-c3ccc(F)cc3)cc21` (stereo not shown) [Example 79, 3-(3-Oxide-pyridin-3-yl)-7-[1-(2-aminosulfonylethyl)-6-(4-fluorophenyl)indol-3-ylcarbonyl]-1H,3H-pyrrolo[1,2-c]thiazole], the Ki amounted to 18 nM. Same read-out and setting: as for `COC(=O)n1cc(C(=O)c2ccn3c2CSC3c2cccnc2)c2ccc(OCc3ccccc3)cc21` (stereo not shown) [Example 18], the figure is 35 nM; as for `CN(C)C(=O)n1cc(C(=O)c2ccn3c2CSC3c2ccc[n+]([O-])c2)c2ccccc21` (stereo not shown) [Example 44, 3-(1-Oxide-pyridin-3-yl)-7-(1-N,N-dimethylcarbamoylindol-3-ylcarbonyl)-1H,3H-pyrrolo[1,2-c]thiazole], 40 nM. The same measure, in the same setting: as for `CN(C)C(=O)n1cc(C(=O)c2ccn3c2C(C)(C)SC3c2cccnc2)c2ccc(-c3ccccc3)cc21` (stereo not shown) [Example 24, 1,1-Dimethyl-3-(pyridin-3-yl)-7-(1-N,N-dimethylcarbamoyl-6-phenylindol-3-ylcarbonyl)-1H,3H-pyrrolo[1,2-c]thiazole], the figure is 51 nM; as for `CN(C)C(=O)n1cc(C(=O)c2ccn3c2C[S+]([O-])C3c2cccnc2)c2ccc(-c3ccccc3)cc21` (stereo not shown) [Example 23, 2-Oxide-3-(pyridin-3-yl)-7-(1-N,N-dimethylcarbamoyl-6-phenyllindol-3-ylcarbonyl)-1H,3H-pyrrolo[1,2-c]thiazole], 95 nM. Same read-out and setting: the same measure for `O=C(c1ccn2c1CSC2c1cccnc1)c1c[nH]c2cc(Cl)ccc12` (stereo not shown) [Example 47, 3-(Pyridin-3-yl)-7-(6-chloroindol-3-ylcarbonyl)-1H,3H-pyrrolo[1,2-c]thiazole]: 590 nM; for `O=C(c1ccn2c1CSC2c1cccnc1)c1c[nH]c2c(OCc3ccccc3)cccc12` (stereo not shown) [Example 5, 3(Pyridin-3-yl)-7-(7-phenylmethoxyindol-3-yl)carbonyl-1H,3H-pyrrolo[1,2-c]thiazole]: 90 nM; for `O=C(c1ccn2c1COC2c1cccnc1)c1c[nH]c2ccccc12` (stereo not shown) [Example 15, 3-(Pyridin-3-yl)-7-(indol-3-ylcarbonyl)-1H,3H-pyrrolo[1,2-c]oxazole]: 5600 nM. In the case of `O=C(c1ccn2c1CSC2c1cccnc1)c1cn(Cc2nnn[nH]2)c2cc(-c3ccc(F)cc3)ccc12` (stereo not shown) [Example 97, 3-(Pyridin-3-yl)-7-[1-(1H-tetrazol-5-ylmethyl)-6-(4-fluorophenyl)indol-3-ylcarbonyl]-1H,3H-pyrrolo[1,2-c]thiazole], the Ki came out at 19 nM.

`CC(=O)OC[n+]1cccc(C2SCc3c(C(=O)c4cn(C(=O)N(C)C)c5cc(-c6ccc(F)cc6)ccc45)ccn32)c1` (stereo not shown) [Example 92, 3-(1-Acetoxymethylpyridin-3-yl)-7-[1-N,N-dimethylcarbamoyl-6-(4-fluorophenyl)indol-3-ylcarbonyl]-1H,3H-pyrrolo[1,2-c]thiazole]: the Ki amounted to 19 nM. The same measure, in the same setting: as for `CN(C)C(=O)Cn1cc(C(=O)c2ccn3c2CSC3c2ccc[n+]([O-])c2)c2ccc(-c3ccc(F)cc3)cc21` (stereo not shown) [Example 75, 3-(1-Oxide-pyridin-3-yl)-7-[1-(2-N,N-dimethylcarbamoylmethyl)-6-(4-fluorophenyl)indol-3-ylcarbonyl]-1H,3H-pyrrolo[1,2-c]thiazole], the figure is 7.5 nM; as for `NCCn1cc(C(=O)c2ccn3c2CSC3c2ccc[n+]([O-])c2)c2ccc(-c3ccc(F)cc3)cc21` (stereo not shown) [Example 90, 3-(1-Oxide-pyridin-3-yl)-7-[1-(2-aminoethyl)-6-(4-fluorophenyl)indol-3-ylcarbonyl]-1H,3H-pyrrolo[1,2-c]thiazole], 480 nM. The same measure, in the same setting: as for `CN(C)C(=O)n1cc(C(=O)c2ccn3c2CSC3c2ccc[n+]([O-])c2)c2ccc(-c3ccccc3)cc21` (stereo not shown) [Example 34, 3-(1-Oxide-pyridin-3-yl)-7-(1-N,N-dimethylcarbamoyl-6-phenylindol-3-ylcarbonyl)-1H,3H-pyrrolo[1,2-c]thiazole], the figure is 14 nM. On to `CCS(=O)(=O)n1cc(C(=O)c2ccn3c2CSC3c2cccnc2)c2ccc(-c3ccc(F)cc3)cc21` (stereo not shown) [Example 71, 3-(Pyridin-3-yl)-7-[1-ethanesulfonyl-6-[4-fluorophenyl)indol-3-ylcarbonyl]-1H,3H-pyrrolo[1,2-c]thiazole], for which the Ki is 244 nM. As for `CNC(=O)Cn1cc(C(=O)c2ccn3c2CSC3c2cccnc2)c2ccc(-c3ccc(F)cc3)cc21` (stereo not shown) [Example 81, 3-(Pyridin-3-yl)-7-[1-(2-N-methylcarbamoylmethyl)-6-(4-fluorophenyl)indol-3-ylcarbonyl]-1H,3H-pyrrolo[1,2-c]thiazole], the Ki was found to be 1.12 nM. The same measure, in the same setting: the same measure for `CN(C)C(=O)n1cc(C(=O)c2ccn3c2CSC3c2cccnc2)c2cc(OCc3ccccc3)ccc21` (stereo not shown) [Example 6, 3-(Pyridin-3-yl)-7-(N,N-dimethylcarbamoyl-5-phenylmethoxyindol-3-yl)carbonyl-1H,3H-pyrrolo[1,2-c]thiazole]: 120 nM. `COc1ccc(-c2ccc3c(C(=O)c4ccn5c4C(C)(C)SC5c4cccnc4)cn(C(=O)N(C)C)c3c2)cc1` (stereo not shown) [Example 26, 1,1-Dimethyl-3-Dimethyl-3-(pyridin-3-yl)-7-[1-N,N-dimethylcarbamoyl-6-(4-methoxyphenyl)indol-3-ylcarbonyl]-1H,3H-pyrrolo[1,2-c]thiazole]: the Ki was determined as 55 nM.

`CN(C)C(=O)n1cc(C(=O)c2ccn3c2CSC3c2ccc[n+]([O-])c2)c2ccc(-c3ccccc3)cc21` (stereo not shown) [Example 54, 3-(1-Oxide-pyridin-3-yl)-7-(1-N,N-dimethylcarbamoyl-6-phenylindol-3-ylcarbonyl)-1H,3H-pyrrolo[1,2-c]thiazole hydrochloride]: the Ki was 17 nM. Same read-out and setting: as for `CN(C)C(=O)n1cc(C(=O)c2ccn3c2CSC3c2ccc[n+](C)c2)c2ccc(-c3ccccc3)cc21` (stereo not shown) [Example 33, 3-(1-methylpyridin-3-yl)-7-(1-N,N-dimethylcarbamoyl-6-phenylindol-3-ylcarbonyl)-1H,3H-pyrrolo[1,2-c]thiazole], the figure is 2800 nM. With `O=C(c1ccn2c1CSC2c1cccnc1)c1c[nH]c2cc(-c3cccnc3)ccc12` (stereo not shown) [Example 41], the Ki is 2000 nM. Still for that read-out and setting: the same measure for `CNC(=O)n1cc(C(=O)c2ccn3c2C(C)(C)SC3c2cccnc2)c2ccc(-c3ccc(OC)cc3)cc21` (stereo not shown) [Example 32, 1,1-Dimethyl-3-(pyridin-3-yl)-7-[1-N-methylcarbamoyl-6-(4-methoxyphenyl)indol-3-ylcarbonyl]-1H,3H-pyrrolo[1,2-c]thiazole]: 150 nM.
